Target: T1, human kinase Mps-1 (Homo sapiens, UniProt P33981)
T1 construct: N-terminally GST-tagged human full length recombinant Mps-1 kinase; GST (N); purchased Invitrogen, Karslruhe, Germany PV4071
T1 sequence (P33981 1-857): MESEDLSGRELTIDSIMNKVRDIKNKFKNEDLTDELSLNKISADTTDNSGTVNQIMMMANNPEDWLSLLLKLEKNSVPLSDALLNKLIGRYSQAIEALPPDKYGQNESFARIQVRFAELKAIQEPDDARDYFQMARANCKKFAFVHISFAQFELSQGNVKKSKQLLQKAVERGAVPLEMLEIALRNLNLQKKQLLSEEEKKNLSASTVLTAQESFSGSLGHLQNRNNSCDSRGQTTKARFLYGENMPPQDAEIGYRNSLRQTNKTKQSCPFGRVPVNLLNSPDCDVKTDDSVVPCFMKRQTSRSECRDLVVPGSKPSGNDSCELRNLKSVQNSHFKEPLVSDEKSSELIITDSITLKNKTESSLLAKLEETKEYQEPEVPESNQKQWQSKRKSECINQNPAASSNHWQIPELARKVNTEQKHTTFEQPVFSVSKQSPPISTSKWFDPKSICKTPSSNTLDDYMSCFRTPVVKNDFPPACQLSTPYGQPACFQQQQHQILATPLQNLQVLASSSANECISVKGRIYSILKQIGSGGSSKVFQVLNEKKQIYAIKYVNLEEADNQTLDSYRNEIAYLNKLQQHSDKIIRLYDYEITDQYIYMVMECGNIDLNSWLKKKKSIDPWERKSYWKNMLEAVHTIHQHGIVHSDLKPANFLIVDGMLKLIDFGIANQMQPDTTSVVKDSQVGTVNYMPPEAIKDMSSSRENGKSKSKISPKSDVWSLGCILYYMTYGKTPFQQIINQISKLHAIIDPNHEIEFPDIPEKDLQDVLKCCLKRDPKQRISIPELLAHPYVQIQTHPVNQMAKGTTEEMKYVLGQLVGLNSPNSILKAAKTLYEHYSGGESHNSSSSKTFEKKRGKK
Test: Mps-1 kinase assay (TR-FRET)
Type: biochemical
Details: Mps-1 TR-FRET kinase assay; avg; read-out: Mps1 avg (IC50 [mol/l])
Summary of the method: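 GST-tagged full-length recombinant human Mps-1 (~0.5 nM) pre-incubated 15 min with compound, then reacted 60 min at 22 °C with 10 μM ATP and 1 μM biotinylated peptide in Hepes pH 7.7 buffer. EDTA-stopped; TR-FRET (Eu anti-phospho-Ser/Thr to SA-XLent) 665/620 nm ratio normalised to no-inhibitor and no-enzyme controls.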

Row | IC50 [µM] | Structure (SMILES)
1 | > 20 | CCN1CC[C@@H](Oc2ccc(NC(=O)c3c(C)nsc3Nc3cnc(C(F)(F)F)cn3)cn2)[C@H](F)C1 [Example 369, N-(6-{[(3R,4R)-1-ethyl-3-fluoropiperidin-4-yl]oxy}pyridin-3-yl)-3-methyl-5-{[5-(trifluoromethyl)pyrazin-2-yl]amino}-1,2-thiazole-4-carboxamide]
2 | ≥ 20 | Cc1nsc(Nc2cnc3ccccc3n2)c1C(=O)Nc1ccc(OC2CCCN(CC(F)F)C2)nc1 (stereo not drawn) [Example 33, N-(6-{[1-(2,2-Difluoroethyl)piperidin-3-yl]oxy}pyridin-3-yl)-3-methyl-5-(quinoxalin-2-ylamino)-1,2-thiazole-4-carboxamide]
3 | > 20 | Cc1nsc(Nc2cnc(C(F)(F)F)cn2)c1C(=O)Nc1ccc(O[C@H]2CCN(CC(F)F)C[C@@H]2F)nc1 [Example 362]
4 | ≥ 20 | Cc1nsc(Nc2cnc(C(F)(F)F)cn2)c1C(=O)Nc1ccc(OCC2CCCN(CCC(F)(F)F)C2)nc1 (stereo not drawn) [Example 328, 3-methyl-5-{[5-(trifluoromethyl)pyrazin-2-yl]amino}-N-(6-{[1-(3,3,3-trifluoropropyl)piperidin-3-yl]methoxy}pyridin-3-yl)-1,2-thiazole-4-carboxamide]
5 | > 20 | Cc1nsc(Nc2cnc(C(F)(F)F)cn2)c1C(=O)Nc1ccc(N2CCN(CC(F)(F)F)CC2)nc1 [Example 360, 3-methyl-N-{6-[4-(2,2,2-trifluoroethyl)piperazin-1-yl]pyridin-3-yl}-5-{[5-(trifluoromethyl)pyrazin-2-yl]amino}-1,2-thiazole-4-carboxamide]
6 | > 20 | Cc1nsc(Nc2cnc(C(F)(F)F)cn2)c1C(=O)Nc1ccc(C2CCN(CC(F)(F)F)CC2)nc1 [Example 358, 3-methyl-N-{6-[1-(2,2,2-trifluoroethyl)piperidin-4-yl]pyridin-3-yl}-5-{[5-(trifluoromethyl)pyrazin-2-yl]amino}-1,2-thiazole-4-carboxamide]
7 | > 20 | Cc1nsc(Nc2cnc(C(F)(F)F)cn2)c1C(=O)Nc1ccc(N2CCN(CC(F)F)CC2)nc1 [Example 359, N-{6-[4-(2,2-difluoroethyl)piperazin-1-yl]pyridin-3-yl}-3-methyl-5-{[5-(trifluoromethyl)pyrazin-2-yl]amino}-1,2-thiazole-4-carboxamide]
8 | ≥ 20 | Cc1nsc(Nc2cnc(C(F)(F)F)cn2)c1C(=O)Nc1ccc(OC2CCCN(CCC(F)(F)F)C2)nc1 (stereo not drawn) [Example 332, 3-methyl-5-{[5-(trifluoromethyl)pyrazin-2-yl]amino}-N-(6-{[1-(3,3,3-trifluoropropyl)piperidin-3-yl]oxy}pyridin-3-yl)-1,2-thiazole-4-carboxamide]
9 | > 20 | Cc1nsc(Nc2cnc(C(F)(F)F)cn2)c1C(=O)Nc1ccc(OCCCN(C)CCF)nc1 [Example 352, N-(6-{3-[(2-fluoroethyl)(methyl)amino]propoxy}pyridin-3-yl)-3-methyl-5-{[5-(trifluoromethyl)pyrazin-2-yl]amino}-1,2-thiazole-4-carboxamide]
10 | > 20 | Cc1nsc(Nc2cnc(C(F)(F)F)cn2)c1C(=O)Nc1ccc(O[C@@H]2CCN(CC(F)(F)F)C[C@H]2F)nc1 [Example 367, N-(6-{[(3R,4R)-3-fluoro-1-(2,2,2-trifluoroethyl)piperidin-4-yl]oxy}pyridin-3-yl)-3-methyl-5-{[5-(trifluoromethyl)pyrazin-2-yl]amino}-1,2-thiazole-4-carboxamide]
11 | ≥ 20 | Cc1nsc(Nc2cnc(C(F)(F)F)cn2)c1C(=O)Nc1ccc(F)c(OCC2CCCN(CCC(F)(F)F)C2)c1 (stereo not drawn) [Example 338, N-(4-fluoro-3-{[1-(3,3,3-trifluoropropyl)piperidin-3-yl]methoxy}phenyl)-3-methyl-5-{[5-(trifluoromethyl)pyrazin-2-yl]amino}-1,2-thiazole-4-carboxamide]
12 | ≥ 20 | Cc1nsc(Nc2cnc(C(F)(F)F)cn2)c1C(=O)Nc1ccc(OCCN(C)CC(F)(F)F)nc1 [Example 350, 3-methyl-N-(6-{2-[methyl(2,2,2-trifluoroethyl)amino]ethoxy}pyridin-3-yl)-5-{[5-(trifluoromethyl)pyrazin-2-yl]amino}-1,2-thiazole-4-carboxamide]
13 | ≥ 20 | Cc1nsc(Nc2cnc(C(F)(F)F)cn2)c1C(=O)Nc1ccc(OC2CCCN(CC(F)F)C2)nc1 (stereo not drawn) [Example 330, N-(6-{[1-(2,2-difluoroethyl)piperidin-3-yl]oxy}pyridin-3-yl)-3-methyl-5-{[5-(trifluoromethyl)pyrazin-2-yl]amino}-1,2-thiazole-4-carboxamide]
14 | > 20 | Cc1nsc(Nc2cnc(C(F)(F)F)cn2)c1C(=O)Nc1ccc(OC[C@@H]2CCCN(CC(F)(F)F)C2)nc1 [Example 376, 3-methyl-N-(6-{[(3R)-1-(2,2,2-trifluoroethyl)piperidin-3-yl]methoxy}pyridin-3-yl)-5-{[5-(trifluoromethyl)pyrazin-2-yl]amino}-1,2-thiazole-4-carboxamide]
15 | ≥ 20 | Cc1nsc(Nc2cnc(C(F)(F)F)cn2)c1C(=O)Nc1ccc(OC2CCCN(C(CF)CF)C2)nc1 (stereo not drawn) [Example 333, N-(6-{[1-(1,3-difluoropropan-2-yl)piperidin-3-yl]oxy}pyridin-3-yl)-3-methyl-5-{[5-(trifluoromethyl)pyrazin-2-yl]amino}-1,2-thiazole-4-carboxamide]
16 | > 20 | Cc1nsc(Nc2cnc(C(F)(F)F)cn2)c1C(=O)Nc1ccc(CCC2CCN(CC(F)F)CC2)nc1 [Example 356, N-(6-{2-[1-(2,2-difluoroethyl)piperidin-4-yl]ethyl}pyridin-3-yl)-3-methyl-5-{[5-(trifluoromethyl)pyrazin-2-yl]amino}-1,2-thiazole-4-carboxamide]
17 | > 20 | Cc1nsc(Nc2cnc(C(F)(F)F)cn2)c1C(=O)Nc1ccc(O[C@@H]2CCN(CC(F)F)C[C@H]2F)nc1 [Example 366, N-(6-{[(3R,4R)-1-(2,2-difluoroethyl)-3-fluoropiperidin-4-yl]oxy}pyridin-3-yl)-3-methyl-5-{[5-(trifluoromethyl)pyrazin-2-yl]amino}-1,2-thiazole-4-carboxamide]
18 | ≥ 20 | Cc1nsc(Nc2cnc(C(F)(F)F)cn2)c1C(=O)Nc1ccc(OC2CCN(C(CF)CF)CC2)nc1 [Example 324, N-(6-{[1-(1,3-difluoropropan-2-yl)piperidin-4-yl]oxy}pyridin-3-yl)-3-methyl-5-{[5-(trifluoromethyl)pyrazin-2-yl]amino}-1,2-thiazole-4-carboxamide]
19 | > 20 | Cc1nsc(Nc2cnc(C(F)(F)F)cn2)c1C(=O)Nc1ccc(OCCN(C)CCC(F)(F)F)nc1 [Example 351, 3-methyl-N-(6-{2-[methyl(3,3,3-trifluoropropyl)amino]ethoxy}pyridin-3-yl)-5-{[5-(trifluoromethyl)pyrazin-2-yl]amino}-1,2-thiazole-4-carboxamide]
20 | ≥ 20 | Cc1nsc(Nc2cnc(C(F)(F)F)cn2)c1C(=O)Nc1ccc(F)c(OCC2CCCN(CCF)C2)c1 (stereo not drawn) [Example 336, N-(4-fluoro-3-{[1-(2-fluoroethyl)piperidin-3-yl]methoxy}phenyl)-3-methyl-5-{[5-(trifluoromethyl)pyrazin-2-yl]amino}-1,2-thiazole-4-carboxamide]
21 | > 20 | Cc1nsc(Nc2cnc(C(F)(F)F)cn2)c1C(=O)Nc1ccc(OCC2CCN(CC(F)F)CC2)nc1 [Example 345, N-(6-{[1-(2,2-difluoroethyl)piperidin-4-yl]methoxy}pyridin-3-yl)-3-methyl-5-{[5-(trifluoromethyl)pyrazin-2-yl]amino}-1,2-thiazole-4-carboxamide]
22 | 19 | Cc1nsc(Nc2cnc(C(F)(F)F)cn2)c1C(=O)Nc1ccc(OCCCN(C)CC(F)F)nc1 [Example 353, N-(6-{3-[(2,2-difluoroethyl)(methyl)amino]propoxy}pyridin-3-yl)-3-methyl-5-{[5-(trifluoromethyl)pyrazin-2-yl]amino}-1,2-thiazole-4-carboxamide]
23 | ≥ 20 | Cc1nsc(Nc2cnc(C(F)(F)F)cn2)c1C(=O)Nc1ccc(OCCNCCC(F)(F)F)nc1 [Example 323, 3-methyl-5-{[5-(trifluoromethyl)pyrazin-2-yl]amino}-N-(6-{2-[(3,3,3-trifluoropropyl)amino]ethoxy}pyridin-3-yl)-1,2-thiazole-4-carboxamide]
24 | ≥ 20 | Cc1nsc(Nc2cnc(C(F)(F)F)cn2)c1C(=O)Nc1ccc(OCCCN(C)CCC(F)(F)F)nc1 [Example 355, 3-methyl-N-(6-{3-[methyl(3,3,3-trifluoropropyl)amino]propoxy}pyridin-3-yl)-5-{[5-(trifluoromethyl)pyrazin-2-yl]amino}-1,2-thiazole-4-carboxamide]
